Converted amounts (≈) assume the structure as drawn. Like-named read-outs stand apart in the source and are kept apart here.
Tests used:
[1] = DPPH free radical scavenging assay; type: biochemical; conditions: concentration range 6.25–50 μg/mL, absorbance 517 nm
Method: Scavenging activities for DPPH and ABTS were calculated and the IC50 was determined.

[2] = system: acetic acid-induced stress mice; test: Chemical induced stress (acetic acid model, writhes); type: in vivo, Balb/C mice
From the text: The anti-stress effect of synthesized flavonoids was screened for chemical-induced stress using the acetic acid model. Animals were randomly assigned into two groups of 8. The control group received Tween 80 (2%). […] The treatments in all groups were given persistently for a period of 15 days.

mice [3] = test: Swimming endurance test; type: in vivo, Balb/C mice; conditions: flavonoids 10 mg/kg, standard diazepam 2 mg/kg IP, 15 days; recorded for 30 min; mean ± SEM, n = 8
Method: Animals were divided at random into two groups of 8. Tween 80 (2%) was given to the control group, while animals in each group were treated with 10 mg/kg of each flavonoid. […] All the doses were given constantly for 15 days. On 15th day, one hour after the dose administration, all the animals were allowed to swim in isolation in a glass tank. The time of immobility for each animal was recorded for a period of 30 min [26, 27].

mice [4] = test: Restraint stress, organ weights; type: in vivo, Balb/C mice; conditions: restraint stress 2 h; flavonoids 10 mg/kg p.o., standard diazepam 2 mg/kg IP, 15 days; mean ± SEM
From the text: (§1) The adhesive tape was removed, and blood samples were collected. After blood collection, the animals were sacrificed, and the brain and vital organs were isolated and weighed.

mice [5] = test: Biochemical parameters in blood after restraint stress; type: in vivo, Balb/C mice; conditions: flavonoids 10 mg/kg, standard diazepam 2 mg/kg, 15 days, mean ± SEM
From the text: as §1
After restrain test, blood samples were collected for the assessment of blood glucose, triglycerides and total cholesterol levels, using available commercial kits. […]

mice [6] = test: Biochemical parameters in brain after restraint stress; type: in vivo, Balb/C mice; conditions: flavonoids 10 mg/kg, standard diazepam 2 mg/kg, 15 days, mean ± SEM
[7] = Mus musculus, ip, 360 h; read-out: Antistress Response (%)
[8] = flavonoids 10 mg/kg, standard diazepam 2 mg/kg IP, 15 days; acetic acid i.p. 0.1 mL (6% v/v), writhes within 20 min; mean ± SEM, n = 8
[9] = Mus musculus, ip, 360 h, read-out: Antistress Response (%)

Row | Structure (SMILES) | IC50, scavenging against DPPH [1] [µg/mL] | inhibition in vivo at 10 mg/kg [2, 7] [%] | Immobility Time (mice [3]) [min] | Weight of Adrenal Gland (mice [4]) | Weight of Brain (mice [4]) [mg] | Weight of Spleen (mice [4]) [mg] | Glucose (blood) (mice [5]) | TGs (blood triglycerides) (mice [5]) | Total Ch (blood total cholesterol) (mice [5]) | Catalase (brain) (mice [6]) [IU/dL] | SOD (brain) (mice [6]) [IU/dL] | TBARS (brain lipid peroxidation) (mice [6]) [nmol/g] | Number of Writhes [2, 8] | inhibition in vivo at 10 mg/kg [2, 9] [%] | Immobility Time (Min) (mice [3])
1 | COc1ccc(-c2oc3ccccc3c(=O)c2O)cc1 [OF3] | 25.54 ± 1.21 (≈ 95.2 µM) | 80.9 | 2.33 ± 0.28 | 6.79 ± 1.10 mg | 413.6 ± 2.66 | 194.8 ± 2.11 | 97.06 ± 1.71 | 43.11 ± 0.36 | 76.09 ± 0.64 | 19.02 ± 0.77 | 9.58 ± 0.66 | 17.49 ± 0.61 | – | – | –
2 | CN(C)c1ccc(-c2oc3ccccc3c(=O)c2O)cc1 [OF5] | – | 63.3 | 3.25 ± 0.29 | 8.04 ± 1.18 mg | 400.5 ± 2.21 | 186.3 ± 2.74 | 101.09 ± 1.14 | 46.24 ± 0.39 | 77.91 ± 0.97 | 17.06 ± 0.61 | 8.11 ± 0.51 | 18.56 ± 0.51 | 16.44 ± 3.04 | – | –
3 | Cc1ccc(-c2oc3ccccc3c(=O)c2O)cc1 [OF2] | – | 74.3 | 2.95 ± 0.37 | 7.21 ± 1.87 mg | 414.2 ± 2.51 | 190.5 ± 2.76 | 97.56 ± 1.61 | 42.88 ± 0.41 | 76.82 ± 0.86 | 18.74 ± 0.67 | 9.02 ± 0.54 | 17.74 ± 0.56 | – | – | –
4 | CN(C)c1ccc(-c2cc(=O)c3ccccc3o2)cc1 [F5] | – | 64.6 | 3.64 ± 0.21 | 8.12 ± 1.81 mg | 412.7 ± 2.81 | 170.3 ± 2.61 | 101.33 ± 1.72 | 46.72 ± 0.51 | 81.82 ± 0.85 | 17.11 ± 0.51 | 8.04 ± 0.57 | 19.02 ± 0.71 | 16.31 ± 2.58 | – | –
5 | O=c1c(O)c(-c2ccccc2)oc2ccccc12 [OF1] | – | 63.4 | 4.32 ± 0.31 | 8.09 ± 1.34 mg | 397.4 ± 3.76 | 188.4 ± 2.24 | 105 ± 1.77 mg/dL | 51.22 ± 0.66 | 80.81 ± 0.72 | 17.02 ± 0.71 | 8.46 ± 0.76 | 19.25 ± 0.51 | 17.32 ± 2.33 | – | –
6 | Cc1ccc(-c2cc(=O)c3ccccc3o2)cc1 [F2] | – | 72.3 | 3.12 ± 0.38 | 7.63 ± 1.11 mg | 401.6 ± 3.11 | 180.4 ± 2.38 | 99.23 ± 1.69 | 45.09 ± 0.67 | 78.61 ± 0.78 | 18.21 ± 0.61 | 8.77 ± 0.59 | 18.72 ± 0.62 | – | – | –
7 | O=c1c(O)c(-c2ccc(C(F)(F)F)cc2)oc2ccccc12 [OF6] | 122.33 ± 1.98 (≈ 399 µM) | – | 3.34 ± 0.25 | 8.11 ± 1.31 mg | 403.9 ± 2.239 | 179.1 ± 2.30 | 100.32 ± 1.29 | 44.02 ± 0.30 | 77.02 ± 0.97 | 17.01 ± 0.52 | 8.03 ± 0.49 | 18.10 ± 0.51 | 15.88 ± 2.11 | 66.5 | –
8 | O=c1cc(-c2ccc(Cl)cc2)oc2ccccc12 [F4] | – | – | 3.21 ± 0.19 | 8.03 ± 1.98 mg | 402.4 ± 3.19 | 173.1 ± 2.66 | 100.92 ± 1.91 | 47.51 ± 0.38 | 80.76 ± 0.91 | 17.88 ± 0.59 | 9.31 ± 0.78 | 19.09 ± 0.49 | 16.21 ± 2.09 | 65.8 | –
9 | CN1C(=O)CN=C(c2ccccc2)c2cc(Cl)ccc21 [Standard, Diazepam, reference compound] | – | – | – | 10.58 ± 5.77 ^ns mg | – | 158.3 ± 2.89 | 108.2 ± 1.06 mg/dL | 38.52 ± 0.57 | 75.62 ± 0.65 | – | – | – | – | – | reduced the immobility time to a significant level
10 | O=c1c(O)c(-c2ccc(Cl)cc2)oc2ccccc12 [OF4] | – | – | 3.44 ± 0.25 | 7.91 ± 1.91 mg | 401.8 ± 2.34 | 183.9 ± 2.56 | 101.15 ± 1.66 | 46.92 ± 0.44 | 78.33 ± 0.76 | 17.45 ± 0.66 | 8.35 ± 0.64 | 18.67 ± 0.76 | 14.18 ± 2.17 | 67.1 | –
11 | O=c1cc(-c2ccc(C(F)(F)F)cc2)oc2ccccc12 [F6] | 174.24 ± 2.71 (≈ 600 µM) | 64.1 | 3.41 ± 0.23 | 8.09 ± 1.77 mg | 408.3 ± 2.60 | 171.1 ± 2.40 | 102.09 ± 1.62 | 47.26 ± 0.44 | 82.01 ± 0.79 | 17.36 ± 0.62 | 8.13 ± 0.51 | 18.96 ± 0.60 | 17.01 ± 1.89 | – | –
12 | O=c1cc(-c2ccccc2)oc2ccccc12 [F1] | – | 58.9 | 4.05 ± 0.45 | 8.13 ± 1.69 mg | 398.1 ± 2.57 | 171.5 ± 2.71 | 105 ± 2.15 mg/dL | 54.39 ± 0.87 | 81.33 ± 0.61 | 16.33 ± 0.69 | 7.96 ± 0.60 | 19.42 ± 0.51 | 19.45 ± 1.89 | – | –
13 | COc1ccc(-c2cc(=O)c3ccccc3o2)cc1 [F3] | – | 74.4 | 2.88 ± 0.26 | 7.22 ± 1.51 mg | 411.3 ± 2.93 | 181.7 ± 2.06 | 98.45 ± 1.51 | 44.69 ± 0.37 | 78.43 ± 0.93 | 18.92 ± 0.51 | 9.42 ± 0.87 | 18.44 ± 0.63 | – | – | –
